Converted amounts (≈) assume the structure as drawn.
Tests used:
Format in all cases: functional
Pseudomonas aeruginosa = test: Antibacterial activity against Pseudomonas aeruginosa ATCC 27853 assessed as bacterial growth inhibition incubated for 16 to 18 hrs by CLSI based susceptibility testing method; details: time 16-18 hrs
[1] = tested on: Mycobacteroides abscessus; test: Antimycobacterial activity against Mycobacterium abscessus ATCC 19977 assessed as bacterial growth inhibition incubated for 7 days by resazurin dye based assay; details: ATCC 19977, 168 h, time 7 day
Klebsiella pneumoniae = test: Antibacterial activity against Klebsiella pneumoniae BAA 1705 assessed as bacterial growth inhibition incubated for 16 to 18 hrs by CLSI based susceptibility testing method; details: time 16-18 hrs
[2] = tested on: Mycobacterium tuberculosis; test: Antimycobacterial activity against Mycobacterium tuberculosis H37Rv ATCC 27294 assessed as bacterial growth inhibition incubated for 7 days by resazurin dye based assay; details: H37Rv ATCC 27294, 168 h, time 7 day
[3] = tested on: Mycolicibacterium fortuitum; test: Antimycobacterial activity against Mycobacterium fortuitum ATCC 6841 assessed as bacterial growth inhibition incubated for 7 days by resazurin dye based assay; details: ATCC 6841, 168 h, time 7 day
Staphylococcus aureus [4] = test: Antibacterial activity against Staphylococcus aureus ATCC 29213 assessed as bacterial growth inhibition incubated for 16 to 18 hrs by CLSI based susceptibility testing method; details: time 16-18 hrs
Acinetobacter baumannii = test: Antibacterial activity against Acinetobacter baumannii BAA 1605 assessed as bacterial growth inhibition incubated for 16 to 18 hrs by CLSI based susceptibility testing method; details: time 16-18 hrs
Mycobacteroides chelonae = test: Antimycobacterial activity against Mycobacteroides chelonae ATCC 35752 assessed as bacterial growth inhibition incubated for 7 days by resazurin dye based assay; details: ATCC 35752, 168 h, time 7 day
Escherichia coli = test: Antibacterial activity against Escherichia coli ATCC 25922 assessed as bacterial growth inhibition incubated for 16 to 18 hrs by CLSI based susceptibility testing method; details: time 16-18 hrs
Staphylococcus aureus [5] = test: Antibacterial activity against methicillin-resistant Staphylococcus aureus NR 192 clinical isolate assessed as bacterial growth inhibition incubated for 16 to 18 hrs by CLSI based susceptibility testing method; details: time 16-18 hrs
Staphylococcus aureus [6] = test: Antibacterial activity against methicillin-resistant Staphylococcus aureus NR 198 clinical isolate assessed as bacterial growth inhibition incubated for 16 to 18 hrs by CLSI based susceptibility testing method; details: time 16-18 hrs
Staphylococcus aureus [7] = test: Antibacterial activity against methicillin-resistant Staphylococcus aureus NR 194 clinical isolate assessed as bacterial growth inhibition incubated for 16 to 18 hrs by CLSI based susceptibility testing method; details: time 16-18 hrs
Staphylococcus aureus [8] = test: Antibacterial activity against vancomycin-resistant Staphylococcus aureus VRS 1 clinical isolate assessed as bacterial growth inhibition incubated for 16 to 18 hrs by CLSI based susceptibility testing method; details: time 16-18 hrs
Staphylococcus aureus [9] = test: Antibacterial activity against methicillin-resistant Staphylococcus aureus NR 191 clinical isolate assessed as bacterial growth inhibition incubated for 16 to 18 hrs by CLSI based susceptibility testing method; details: time 16-18 hrs
Staphylococcus aureus [10] = test: Antibacterial activity against methicillin-resistant Staphylococcus aureus NR 100 clinical isolate assessed as bacterial growth inhibition incubated for 16 to 18 hrs by CLSI based susceptibility testing method; details: time 16-18 hrs
Staphylococcus aureus [11] = test: Antibacterial activity against methicillin-resistant Staphylococcus aureus NR 119 clinical isolate assessed as bacterial growth inhibition incubated for 16 to 18 hrs by CLSI based susceptibility testing method; details: time 16-18 hrs
Staphylococcus aureus [12] = test: Antibacterial activity against vancomycin-resistant Staphylococcus aureus VRS 4 clinical isolate assessed as bacterial growth inhibition incubated for 16 to 18 hrs by CLSI based susceptibility testing method; details: time 16-18 hrs
Staphylococcus aureus [13] = test: Antibacterial activity against methicillin-resistant Staphylococcus aureus NR 193 clinical isolate assessed as bacterial growth inhibition incubated for 16 to 18 hrs by CLSI based susceptibility testing method; details: time 16-18 hrs
Staphylococcus aureus [14] = test: Antibacterial activity against vancomycin-resistant Staphylococcus aureus VRS 12 clinical isolate assessed as bacterial growth inhibition incubated for 16 to 18 hrs by CLSI based susceptibility testing method; details: time 16-18 hrs
Staphylococcus aureus [15] = test: Antibacterial activity against methicillin-resistant Staphylococcus aureus NR 129 clinical isolate assessed as bacterial growth inhibition incubated for 16 to 18 hrs by CLSI based susceptibility testing method; details: time 16-18 hrs
Staphylococcus aureus [16] = test: Antibacterial activity against methicillin-sensitive Staphylococcus aureus ATCC 29213 clinical isolate assessed as bacterial growth inhibition incubated for 16 to 18 hrs by CLSI based susceptibility testing method; details: time 16-18 hrs
Staphylococcus aureus [17] = test: Antibacterial activity against methicillin-resistant Staphylococcus aureus NR 186 clinical isolate assessed as bacterial growth inhibition incubated for 16 to 18 hrs by CLSI based susceptibility testing method; details: time 16-18 hrs

SMILES	MIC (Pseudomonas aeruginosa) [µg/mL]	MIC [1] [µg/mL]	MIC (Klebsiella pneumoniae) [µg/mL]	MIC [2] [µg/mL]	MIC [3] [µg/mL]	MIC (Staphylococcus aureus [4]) [µg/mL]	MIC (Acinetobacter baumannii) [µg/mL]	MIC (Mycobacteroides chelonae) [µg/mL]	MIC (Escherichia coli) [µg/mL]	other results
Cc1nc(/N=C2\NC(=O)/C(=C/c3cc(C)n(-c4ccccc4O)c3C)S2)sc1C	> 64	> 64	> 64	> 64	> 64	> 64	> 64	> 64	> 64	–
Cc1cc(/C=C2\S/C(=N/c3nccs3)NC2=O)c(C)n1-c1cc(Cl)ccc1O	> 64	> 64	> 64	32 (≈ 74.3 µM)	> 64	1 (≈ 2.32 µM)	> 64	> 64	> 64	–
Cc1nc(/N=C2\NC(=O)/C(=C/c3cc(C)n(-c4ccccc4Cl)c3C)S2)sc1C	> 64	> 64	> 64	2 (≈ 4.51 µM)	> 64	> 64	> 64	> 64	> 64	–
Cc1nc(/N=C2\NC(=O)/C(=C/c3cc(C)n(-c4ccccc4)c3C)S2)sc1C	> 64	> 64	> 64	> 64	> 64	> 64	> 64	> 64	> 64	–
Cc1cc(/C=C2\S/C(=N/c3nccs3)NC2=O)c(C)n1-c1ccc([N+](=O)[O-])cc1	> 64	> 64	> 64	> 64	> 64	> 64	> 64	> 64	> 64	–
Cc1cc(/C=C2\S/C(=N/c3nccs3)NC2=O)c(C)n1-c1ccccc1Cl	> 64	> 64	> 64	16 (≈ 38.6 µM)	> 64	4 (≈ 9.64 µM)	> 64	> 64	> 64	–
Cc1nc(/N=C2\NC(=O)/C(=C/c3cc(C)n(-c4ccc(Cl)cc4)c3C)S2)sc1C	> 64	> 64	> 64	> 64	> 64	> 64	> 64	> 64	> 64	–
Cc1nc(/N=C2\NC(=O)/C(=C/c3cc(C)n(-c4ccc(N5CCOCC5)cc4)c3C)S2)sc1C	> 64	> 64	> 64	> 64	> 64	64 (≈ 130 µM)	> 64	> 64	> 64	–
Cc1cc(/C=C2\S/C(=N/c3nccs3)NC2=O)c(C)n1-c1ccc(N2CCOCC2)cc1	> 64	> 64	> 64	4 (≈ 8.59 µM)	> 64	16 (≈ 34.4 µM)	> 64	> 64	> 64	–
COc1ccccc1-n1c(C)cc(/C=C2\S/C(=N/c3nc(C)c(C)s3)NC2=O)c1C	> 64	> 64	> 64	> 64	> 64	> 64	> 64	> 64	> 64	–
COc1cccc(OC)c1C(=O)N[C@@H]1C(=O)N2[C@@H]1SC(C)(C)[C@@H]2C(=O)O [METHICILLIN]	–	–	–	–	–	–	–	–	–	MIC (Staphylococcus aureus [5]): > 64 µg/mL; MIC (Staphylococcus aureus [6]): > 64 µg/mL; MIC (Staphylococcus aureus [7]): 32 µg/mL (≈ 84.1 µM); MIC (Staphylococcus aureus [8]): > 64 µg/mL; MIC (Staphylococcus aureus [9]): > 64 µg/mL; MIC (Staphylococcus aureus [10]): > 64 µg/mL; MIC (Staphylococcus aureus [11]): > 64 µg/mL; MIC (Staphylococcus aureus [12]): > 64 µg/mL; MIC (Staphylococcus aureus [13]): > 64 µg/mL; MIC (Staphylococcus aureus [14]): > 64 µg/mL; MIC (Staphylococcus aureus [15]): 32 µg/mL (≈ 84.1 µM); MIC (Staphylococcus aureus [16]): 1 µg/mL (≈ 2.63 µM); MIC (Staphylococcus aureus [17]): 64 µg/mL (≈ 168 µM)
Cc1nc(/N=C2\NC(=O)/C(=C/c3cc(C)n(-c4ccccc4Br)c3C)S2)sc1C	> 64	> 64	> 64	4 (≈ 8.21 µM)	> 64	> 64	> 64	> 64	> 64	–
Cc1nc(/N=C2\NC(=O)/C(=C/c3cc(C)n(-c4ccc([N+](=O)[O-])c(C(F)(F)F)c4)c3C)S2)sc1C	> 64	> 64	> 64	> 64	> 64	16 (≈ 30.7 µM)	> 64	> 64	> 64	–
Cc1cc(/C=C2\S/C(=N/c3nccs3)NC2=O)c(C)n1-c1ccccc1O	> 64	> 64	> 64	16 (≈ 40.4 µM)	> 64	1 (≈ 2.52 µM)	> 64	> 64	> 64	–
Cc1nc(/N=C2\NC(=O)/C(=C/c3cc(C)n(-c4cccc(F)c4)c3C)S2)sc1C	> 64	> 64	> 64	64 (≈ 150 µM)	> 64	> 64	> 64	> 64	> 64	–
COc1ccc(-n2c(C)cc(/C=C3\S/C(=N/c4nc(C)c(C)s4)NC3=O)c2C)cc1	> 64	> 64	> 64	> 64	> 64	> 64	> 64	> 64	> 64	–
COc1ccc(-n2c(C)cc(/C=C3\S/C(=N/c4nccs4)NC3=O)c2C)cc1OC	> 64	> 64	> 64	8 (≈ 18.2 µM)	> 64	4 (≈ 9.08 µM)	> 64	> 64	> 64	–
Cc1nc(/N=C2\NC(=O)/C(=C/c3cc(C)n(-c4cccc(Cl)c4)c3C)S2)sc1C	> 64	> 64	> 64	4 (≈ 9.03 µM)	> 64	> 64	> 64	> 64	> 64	–
Cc1nc(/N=C2\NC(=O)/C(=C/c3cc(C)n(-c4ccc(C#N)c(Cl)c4)c3C)S2)sc1C	> 64	> 64	> 64	> 64	> 64	> 64	> 64	> 64	> 64	–
Cc1ccc(-n2c(C)cc(/C=C3\S/C(=N/c4nc(C)c(C)s4)NC3=O)c2C)cc1	> 64	> 64	> 64	> 64	> 64	> 64	> 64	> 64	> 64	–
Cc1ccc(-n2c(C)cc(/C=C3\S/C(=N/c4nc(C)c(C)s4)NC3=O)c2C)cc1C	> 64	> 64	> 64	4 (≈ 9.16 µM)	> 64	> 64	> 64	> 64	> 64	–
Cc1cc(/C=C2\S/C(=N/c3nccs3)NC2=O)c(C)n1-c1ccc(C#N)c(Cl)c1	> 64	> 64	> 64	16 (≈ 36.4 µM)	> 64	> 64	> 64	> 64	> 64	–
Cc1cc(/C=C2\S/C(=N/c3nccs3)NC2=O)c(C)n1-c1ccc(F)cc1	> 64	> 64	> 64	4 (≈ 10 µM)	> 64	> 64	> 64	> 64	> 64	–
Cc1nc(/N=C2\NC(=O)/C(=C/c3cc(C)n(-c4ccc([N+](=O)[O-])cc4)c3C)S2)sc1C	> 64	> 64	> 64	> 64	> 64	> 64	> 64	> 64	> 64	–
